The text below walks through data of US8759334B2, “Compounds useful for the treatment of metabolic and inflammatory diseases” (Galapagos NV, priority 2011, dated 2014).

The target of this test is T1, GPR43 (Homo sapiens, UniProt O15552).
T1 construct: expressed in transfected cells
T1 sequence (O15552 1-330): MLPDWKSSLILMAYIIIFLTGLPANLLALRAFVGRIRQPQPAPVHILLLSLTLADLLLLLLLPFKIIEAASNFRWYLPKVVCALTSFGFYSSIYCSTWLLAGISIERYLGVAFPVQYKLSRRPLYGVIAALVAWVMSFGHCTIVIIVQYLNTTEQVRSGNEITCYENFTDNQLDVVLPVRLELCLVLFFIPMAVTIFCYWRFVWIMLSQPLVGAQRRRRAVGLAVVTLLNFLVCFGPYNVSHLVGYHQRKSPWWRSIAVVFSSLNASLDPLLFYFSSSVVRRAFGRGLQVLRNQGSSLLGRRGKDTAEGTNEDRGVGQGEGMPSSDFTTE
Briefly: Calcium mobilization assay with probenecid. The settings on record: GPR43 stably expressing cells; triggered with sodium acetate at EC80; 2.5 mM probenecid; read-out: GPR43 assay with probenicid IC50. The class given is cell-based. An outline of the steps:
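[…] being added at rising concentrations to a GPR43 stable line. Before this, cells were dye-loaded (Calcium 4 with 2.5 mM probenecid) for 2 h at 37 °C after overnight plating.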
(A change in cytosolic calcium serves as a functional read-out for many receptors and channels.)
Turning to `CC(C)C1(C(=O)N(CCCC(=O)O)Cc2cccc(Cl)c2)CCN1C(=O)c1csc2ccccc12` (centres unmarked) [Compound 203, 4-[[1-(Benzo[b]thiophene-3-carbonyl)-2-isopropyl-azetidine-2-carbonyl]-(3-chloro-benzyl)-amino]-butyric acid], the half-maximal inhibitory concentration (IC50) lay within 0.01 to 100 nM.

Turning to `C[C@]1(C(=O)N(CCCC(=O)NS(C)(=O)=O)Cc2cccc(Cl)c2)CCN1C(=O)c1csc2ccccc12` [Compound 207, (R)-1-(benzo[b]thiophene-3-carbonyl)-N-(3-chlorobenzyl)-2-methyl-N-(4-(methylsulfonamido)-4-oxobutyl)azetidine-2-carboxamide], the IC50 lay within 0.01 to 100 nM. With `CC1(C(=O)N(CCCC(=O)O)c2cccc(C(F)(F)F)c2)CCN1C(=O)c1csc2ccccc12` (centres unmarked) [Compound 251, 4-(1-(benzo[b]thiophene-3-carbonyl)-2-methyl-N-(3-(trifluoromethyl)phenyl)azetidine-2-carboxamido)butanoic acid] the figure was 101 to 500 nM; with `CC1(C(=O)N(CCCC(=O)O)Cc2ccc3ccoc3c2)CCN1C(=O)c1csc2ccccc12` (centres unmarked) [Compound 163, 4-{[1-(Benzo[b]thiophene-3-carbonyl)-2-methyl-azetidine-2-carbonyl]-benzofuran-6-ylmethyl-amino}-butyric acid], 101 to 500 nM; with `CC1(C(=O)N(CCCS(N)(=O)=O)c2ccc(Cl)cc2)CCN1C(=O)c1csc2ccccc12` (centres unmarked) [Compound 206, 1-(Benzo[b]thiophene-3-carbonyl)-2-methyl-azetidine-2-carboxylic acid (4-chloro-phenyl)-(3-sulfamoyl-propyl)-amide], 0.01 to 100 nM. With `CC1(C(=O)N(CCCC(=O)O)c2ccccn2)CCN1C(=O)c1csc2ccccc12` (centres unmarked) [Compound 253, 4-(1-(benzo[b]thiophene-3-carbonyl)-2-methyl-N-(pyridin-2-yl)azetidine-2-carboxamido)butanoic acid] the figure was above 1000 nM. With `CC1(C(=O)N(CCCC#N)Cc2ccc(Cl)cc2)CCN1C(=O)Cc1csc2ccccc12` (centres unmarked) [Compound 99, 1-(2-Benzo[b]thiophen-3-yl-acetyl)-2-methyl-azetidine-2-carboxylic acid (4-chloro-benzyl)-(3-cyano-propyl)-amide] the figure was 101 to 500 nM; with `CCOC(=O)CCCN(Cc1cccc(Cl)c1)C(=O)C1(C)CCN1C(=O)c1csc2ccccc12` (centres unmarked) [Compound 143, ethyl 4-(1-(benzo[b]thiophene-3-carbonyl)-N-(3-chlorobenzyl)-2-methylazetidine-2-carboxamido)butanoate], above 1000 nM. In the case of `CC1(C(=O)N(CCCC(=O)NS(C)(=O)=O)c2ccc(Cl)cc2)CCN1C(=O)c1csc2ccccc12` (centres unmarked) [Compound 234, 1-(benzo[b]thiophene-3-carbonyl)-N-(4-chlorophenyl)-2-methyl-N-(4-(methylsulfonamido)-4-oxobutyl)azetidine-2-carboxamide], the concentration for half-maximal inhibition (IC50) lay in the range of 0.01 to 100 nM. With `CC1(C(=O)N(CCCC(=O)N2CCOCC2)Cc2ccc(Cl)cc2)CCN1C(=O)Cc1coc2ccccc12` (centres unmarked) [Compound 140, 1-(2-Benzofuran-3-yl-acetyl)-2-methyl-azetidine-2-carboxylic acid (4-chloro-benzyl)-(4-morpholin-4-yl-4-oxo-butyl)-amide] the figure was above 1000 nM; with `CC1(C(=O)N(CCCC(=O)O)Cc2ccc(Cl)cc2)CCN1C(=O)Oc1ccc(C(F)(F)F)cc1` (centres unmarked) [Compound 226, 4-(N-(4-chlorobenzyl)-2-methyl-1-((4-(trifluoromethyl)phenoxy)carbonyl)azetidine-2-carboxamido)butanoic acid], above 1000 nM. For `CC1(C(=O)N(CCC(=O)O)Cc2cccc(Cl)c2)CCN1C(=O)Cc1csc2ccccc12` (centres unmarked) [Compound 170, 3-[[1-(2-Benzo[b]thiophen-3-yl-acetyl)-2-methyl-azetidine-2-carbonyl]-(3-chloro-benzyl)-amino]-propionic acid] the value was 101 to 500 nM. In the case of `Cc1cc(C)cc(CC(=O)N2CCC2(C)C(=O)N(CCCC(=O)O)Cc2ccc3ccoc3c2)c1` (centres unmarked) [Compound 162, 4-(Benzofuran-6-ylmethyl-{1-[2-(3,5-dimethyl-phenyl)-acetyl]-2-methyl-azetidine-2-carbonyl}-amino)-butyric acid], the IC50 is 501 to 1000 nM. With `CCOC(=O)CCCN(Cc1ccc(C(F)(F)F)cc1)C(=O)C1(C)CCN1C(=O)c1csc2ccccc12` (centres unmarked) [Compound 141, ethyl 4-(1-(benzo[b]thiophene-3-carbonyl)-2-methyl-N-(4-(trifluoromethyl)benzyl)azetidine-2-carboxamido)butanoate] the figure was above 1000 nM; with `CC1(C(=O)N(CCCC(=O)N2CCOCC2)Cc2ccc(Cl)cc2)CCN1C(=O)Cc1csc2ccccc12` (centres unmarked) [Compound 129, 1-(2-Benzo[b]thiophen-3-yl-acetyl)-2-methyl-azetidine-2-carboxylic acid (4-chloro-benzyl)-(4-morpholin-4-yl-4-oxo-butyl)-amide], 0.01 to 100 nM. Take `CS(=O)(=O)NC(=O)CCCN(Cc1cccc(Cl)c1)C(=O)C1(Cc2ccc(F)cc2)CCN1C(=O)c1csc2ccccc12` (centres unmarked) [Compound 241, 1-(benzo[b]thiophene-3-carbonyl)-N-(3-chlorobenzyl)-2-(4-fluorobenzyl)-N-(4-(methylsulfonamido)-4-oxobutyl)azetidine-2-carboxamide]: the half-maximal inhibitory concentration (IC50) lay in the range of 501 to 1000 nM.

For the compound `CCC1(C(=O)N(CCCS(N)(=O)=O)Cc2cccc(Cl)c2)CCN1C(=O)c1csc2ccccc12` (centres unmarked) [Compound 208, 1-(benzo[b]thiophene-3-carbonyl)-N-(3-chlorobenzyl)-2-ethyl-N-(3-sulfamoylpropyl)azetidine-2-carboxamide], the IC50 was 0.01 to 100 nM. For `Cc1cc(C)cc(CC(=O)N2CCC2(C)C(=O)N(C)Cc2cccc(Br)c2)c1` (centres unmarked) [Compound 39, 1-[2-(3,5-Dimethyl-phenyl)-acetyl]-2-methyl-azetidine-2-carboxylic acid (3-bromo-benzyl)-methyl-amide] the value was above 1000 nM; for `Cc1cc(C)cc(CC(=O)N2CCC2(C)C(=O)N(CCCS(=O)(=O)N2CCN(C)CC2)Cc2ccc(Cl)cc2)c1` (centres unmarked) [Compound 180, 1-[2-(3,5-Dimethyl-phenyl)-acetyl]-2-methyl-azetidine-2-carboxylic acid (4-chloro-benzyl)-[3-(4-methyl-piperazine-1-sulfonyl)-propyl]-amide], 501 to 1000 nM. With `CNS(=O)(=O)CCCN(Cc1ccc(Cl)cc1)C(=O)C1(C)CCN1C(=O)c1csc2ccccc12` (centres unmarked) [Compound 186, 1-(Benzo[b]thiophene-3-carbonyl)-2-methyl-azetidine-2-carboxlic acid (4-chloro-benzyl)-(3-methylsulfamoyl-propyl)-amide] the figure was 101 to 500 nM; with `Cc1ccc(OC(=O)N2CCC2(C)C(=O)N(CCCC(=O)O)Cc2ccc(Cl)cc2)c(Cl)c1` (centres unmarked) [Compound 223, 4-(1-((2-chloro-4-methylphenoxy)carbonyl)-N-(4-chlorobenzyl)-2-methylazetidine-2-carboxamido)butanoic acid], above 1000 nM; with `COC(=O)CCN(Cc1cccc(Cl)c1)C(=O)C1(C)CCN1C(=O)c1csc2ccccc12` (centres unmarked) [Compound 172, 3-[[1-(Benzo[b]thiophene-3-carbonyl)-2-methyl-azetidine-2-carbonyl]-(3-chloro-benzyl)-amino]-propionic acid methyl ester], 101 to 500 nM. For `COc1ccc(OC(=O)N2CCC2(C)C(=O)N(CCCC(=O)O)Cc2ccc(Cl)cc2)c(Cl)c1` (centres unmarked) [Compound 224, 4-(1-((2-chloro-4-methoxyphenoxy)carbonyl)-N-(4-chlorobenzyl)-2-methylazetidine-2-carboxamido)butanoic acid] the value was above 1000 nM; for `CCC1(C(=O)N(CCCS(N)(=O)=O)Cc2ccc(Cl)cc2)CCN1C(=O)c1csc2ccccc12` (centres unmarked) [Compound 216, 1-(benzo[b]thiophene-3-carbonyl)-N-(4-chlorobenzyl)-2-ethyl-N-(3-sulfamoylpropyl)azetidine-2-carboxamide], 101 to 500 nM. On to `COc1ccccc1CC1(C(=O)N(CCCC(=O)O)Cc2cccc(Cl)c2)CCN1C(=O)c1csc2ccccc12` (centres unmarked) [Compound 247, 4-(1-(benzo[b]thiophene-3-carbonyl)-N-(3-chlorobenzyl)-2-(2-methoxybenzyl)azetidine-2-carboxamido)butanoic acid], for which the concentration for half-maximal inhibition (IC50) is above 1000 nM. For `CCC1(C(=O)N(CCCC(=O)NS(C)(=O)=O)Cc2cccc(Cl)c2)CCN1C(=O)c1csc2ccccc12` (centres unmarked) [Compound 228, 1-(benzo[b]thiophene-3-carbonyl)-N-(3-chlorobenzyl)-2-ethyl-N-(4-(methylsulfonamido)-4-oxobutyl)azetidine-2-carboxamide] the value was 0.01 to 100 nM; for `CC1(C(=O)N(CCCC(=O)O)Cc2ccc(Cl)cc2)CCN1C(=O)Oc1cc(C(F)(F)F)ccc1Cl` (centres unmarked) [Compound 236, 4-(1-((2-chloro-5-(trifluoromethyl)phenoxy)carbonyl)-N-(4-chlorobenzyl)-2-methylazetidine-2-carboxamido)butanoic acid], above 1000 nM. As for `Cc1cc(C)cc(CC(=O)N2CCC2(C)C(=O)N(Cc2ccc(Cl)cc2)Cc2noc(O)n2)c1` (centres unmarked) [Compound 114, 1-[2-(3,5-Dimethyl-phenyl)-acetyl]-2-methyl-azetidine-2-carboxylic acid (4-chloro-benzyl)-(5-hydroxy-[1,2,4]oxadiazol-3-ylmethyl)-amide], the half-inhibitory concentration (IC50) fell in the range of 501 to 1000 nM.

With `C[C@@H](c1ccc(Cl)cc1)N(CCCS(N)(=O)=O)C(=O)C1(C)CCN1C(=O)c1csc2ccccc12` (stereo partly drawn) [Compound 209, 1-(benzo[b]thiophene-3-carbonyl)-N-((S)-1-(4-chlorophenyl)ethyl)-2-methyl-N-(3-sulfamoylpropyl)azetidine-2-carboxamide], the IC50 fell in the range of 101 to 500 nM.

For orientation: IC50 means the concentration that gives 50% inhibition.
